Eight compounds from patent US11529321B2, “Use of aminomethylenecyclohexane-1,3-dione compound” (WIGEN BIOMEDICINE TECHNOLOGY (SHANGHAI) CO., LTD., priority 2017, dated 2022) can be followed below.

The target of the experiment is LC3B (Homo sapiens (Human), UniProt Q9GZQ8). In words: Fluorescence polarization assay, GST-LC3B with FITC-labeled peptide. (In fluorescence polarisation assays a small probe gives low polarisation when free and higher when bound to something large.)
Protocol: Then the resulting mixture was incubated at 25° C. in the dark.
For orientation: IC50 means the concentration that inhibits the measured activity by half. Low values mean greater potency in that assay, high ones weaker potency in that assay. Consider `CN(C)C=C1C(=O)CC(c2ccccc2)CC1=O` (centres unmarked) [Compound 1, 2-((Dimethylamino)Methylene)-5-Phenyl-Cyclohexane-1,3-Dione], for which the IC50 was 3 to 15 µM.
With `O=C1CC(c2ccccc2)CC(=O)C1=CNc1ccccc1` (centres unmarked) [Compound 11, 5-Phenyl-2-((Phenylamino)Methylene)-Cyclohexane-1,3-Dione] the figure was 15 to 100 µM; with `Cc1n[nH]c(NC=C2C(=O)CC(C)(C)CC2=O)c1-c1ccccc1` [Compound 17], 100 to 1000 µM.
For `CN(C)C=C1C(=O)CC2(CC2)CC1=O` [Compound 22], the IC50 is 100 to 1000 µM.
With `CNC(=O)NC=C1C(=O)CCCC1=O` [Compound 25] the figure was 100 to 1000 µM.
With `Cc1ccc(S(=O)(=O)NNC=C2C(=O)CCCC2=O)cc1` [Compound 26] the figure was 100 to 1000 µM; with `CC1(C)CC(=O)C(=CNCCN2CCN(C(=O)Cc3ccc(F)cc3)CC2)C(=O)C1` [Compound 46], 100 to 1000 µM; with `O=c1c(=CNc2ccccc2)c(=O)c2cccc3cccc1c32` [Compound 61], 15 to 100 µM.
